Legend:
S1PL2021 [1] = target: T1, S1PL2021 (Burkholderia pseudomallei, UniProt Q63IP8)
T1 construct: gene BPSS2021

S1PL2021 [2] = target: T1, S1PL2021; remark: listed apart in the source

T1 sequence (Q63IP8 21-493 limits assumed): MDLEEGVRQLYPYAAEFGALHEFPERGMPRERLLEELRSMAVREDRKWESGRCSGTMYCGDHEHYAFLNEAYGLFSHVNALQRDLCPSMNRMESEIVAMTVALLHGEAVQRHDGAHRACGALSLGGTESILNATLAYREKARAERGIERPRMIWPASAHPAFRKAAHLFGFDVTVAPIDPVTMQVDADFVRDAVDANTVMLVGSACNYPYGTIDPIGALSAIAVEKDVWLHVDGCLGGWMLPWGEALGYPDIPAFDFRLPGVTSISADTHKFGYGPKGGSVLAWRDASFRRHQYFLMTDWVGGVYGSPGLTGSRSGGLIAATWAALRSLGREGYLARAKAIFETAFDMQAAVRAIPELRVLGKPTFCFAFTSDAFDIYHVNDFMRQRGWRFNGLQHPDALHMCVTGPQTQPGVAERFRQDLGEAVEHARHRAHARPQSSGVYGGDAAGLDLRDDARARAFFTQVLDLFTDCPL

SMILES: CCCCCCCCCCCCC/C=C/[C@@H](O)[C@@H](N)CO [D-erythro sphingosine]
- UV-vis spectroscopy of PLP (S1PL2021 [1]): S1PL2021 could also bind the nonphosphorylated substrate, D-erythro sphingosine

SMILES: Cc1ncc(COP(=O)(O)O)c(C=O)c1O [PLP]
- X-ray crystal structure, 2.1 Å (S1PL2021 [2]): dimer of S1PL with the PLP cofactor present as an internal aldimine with residue K271
